Results taken from patent publication US20240101602A1, “ANTIMICROBIAL PEPTIDES AND METHOD OF PREVENTING OR TREATING INFECTION BY USING THE SAME” (priority 2020, published 2024).
Values after ≈ are worked out from the molar mass of the structure shown. Like-named read-outs stand apart in the source and are kept apart here. Non-standard residues stand in square brackets, D forms with d. Residues, ends and D or L forms follow the SMILES beside them.

Tests used:
red blood cells = assay type: cell-based, rat
Description: Further, the hemolytic activity of the antimicrobial peptides was tested. EDTA-treated rat whole blood was centrifuged at 840×g for 3 minutes at 4° C. to separate blood cells and plasma. The plasma was removed, and the blood cells were washed three times with PBS having the same volume as the original blood volume by gently turning the centrifuge tube upside down. After washing, ten microliters of blood cells were diluted in PBS 2000 times to count the cells. Finally, red blood cells were diluted to 5×10^8 cells/mL in PBS. Peptides were dissolved in water and filtered through a 0.2-μm filter to make a stock solution. The peptide concentration was quantitated by UV280. The peptide solution was diluted in PBS to different concentrations (5 times of tested concentration). Twenty microliters of peptide in PBS were mixed with 80 μL of red blood cell solution in a 96-well plate (V-bottom). […] The concentration of heme contained in each well was measured by UV405 using Infinite M1000 pro (Tecan). The hemolytic activity was calculated using the following formula: Hemolytic activity=[(F−F0)/(Ft−F0)]×100% • F is UV405 of the peptide-treated sample; • F0 is UV405 of sample without peptide (negative control); • Ft is UV405 of the Triton-treated sample (positive control).

[1] = test system: Candida albicans 12-99 (fluconazole-resistant)
[2] = test system: Candida albicans 89 (echinocandin-resistant)
[3] = test system: Cryptococcus neoformans H99
[4] = test system: Cryptococcus neoformans T1 (fluconazole-resistant)
[5] = test system: Cryptococcus neoformans 89-610 (fluconazole-resistant)
[6] = test system: Cryptococcus deuterogattii R265
[7] = test system: Cryptococcus gattii WM276
[8] = test system: Acinetobacter baumannii ATCC 17978
[9] = test system: Klebsiella pneumonia NTUH-K2044
[10] = test system: Staphylococcus aureus BCRC 10777
[11] = test system: Staphylococcus epidermidis ATCC 14990
[12] = test system: Pseudomonas aeruginosa ATCC 9027; settings: ATCC 9027
[13] = test system: Salmonella typhimurium NCHU 15721; settings: murium NCHU 15721
[14] = test system: Xanthomonas campestris pv. campestris strain Xcc17; experiment: IC50 of bacterial growth (OD600) in rich liquid medium; assay type: cell-based; settings: Xcc Xcc17, 24 h, purified peptides
Description: (§1) To measure the antimicrobial activity, single colony grown on an optimal rich agar medium for each bacterium was picked and grew in 3 mL of the same rich liquid medium for 4 to 6 h. The bacterial culture was then diluted in the same medium to give a final concentration of OD600=0.08 and then further diluted […] in the same medium. In each well of a 96-well polystyrene plate, 90 μL of the diluted culture was mixed with 10 μL of the peptide to give a peptide concentration of 0, 2, 10, and 20 μg/mL (final cell concentration is 5×10^5 CFU/mL). OD600 was measured after incubation at an optimal temperature for 24 h. IC50 was determined as the lowest peptide concentration inhibiting 50% of bacterial growth.

[15] = test system: Xanthomonas euvesicatoria strain Xvt28; experiment: as above; assay type: cell-based; settings: Xev Xvt28, 24 h, purified peptides
Description: as §1

Eco DH5α = experiment: MIC and MBC by serial dilution in 96-well plate; assay type: cell-based, Escherichia coli; settings: Table 7
Description: (§2) The effect of peptide length on the antimicrobial activity was investigated by deciding the minimal inhibitory concentration (MIC) and minimal bactericidal concentration (MBC) for each peptide against the pathogen with the media and growth conditions of phytopathogenic bacteria and E. coli as described in Table 1. Single bacterial colony grown on an optimal rich agar medium was picked, and each grew in 3 mL of the same rich liquid medium for 4 to 6 h.
(§3) For experiments carried out in the rich medium, the bacterial broth culture was then diluted in the same medium to give a final concentration of OD600=0.08, and then further diluted 100 folds in the same medium.
(§4) For experiments carried out in the minimal medium, the bacterial cells were collected from the bacterial liquid culture by centrifugation, re-suspended in an optimal minimal medium to give a final concentration of OD600=0.08, and then further diluted 100 folds in the same minimal medium.
(§5) Fifty microliters of serially diluted peptides (2-fold the final concentration) were added in a 96-well polystyrene plate with 50 μL of the bacterial culture. The final concentrations of peptides were 0, 2, 4, 8, 16 and 32 μg/mL. The plates were incubated at an optimal temperature without shaking.
(§6) MBC was determined as the lowest peptide concentration at which no colonies formed.

[16] = test system: Xanthomonas campestris pv. campestris strain Xcc17; experiment: MIC and MBC by serial dilution in 96-well plate; assay type: cell-based; settings: Xcc Xcc17; Table 7
Description: as §2, §3, §4, §5, §6

[17] = test system: Xanthomonas euvesicatoria strain Xvt28; experiment: MIC and MBC by serial dilution in 96-well plate; assay type: cell-based; settings: Xev Xvt28; Table 7
Description: as §2, §3, §4, §5, §6

[18] = test system: Pectobacterium carotovorum subsp. carotovorum; assay type: cell-based
Summary of the method: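 Bacteria were grown 4–6 h, set to OD600=0.08 in rich or minimal medium, then diluted 100-fold. This inoculum was mixed 1:1 with 2-fold serial peptide dilutions and incubated static at optimal temperature. MIC was read from growth and MBC taken as the lowest concentration giving no colonies.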

[19] = CD spectra of pepD in liposomes; assay type: physicochemical; settings: CD in water, DOPC, POPE/POPG (1:1, w/w) liposomes
Description: 1,2-dioleoyl-sn-glycero-3-phosphocholine (DOPC) is commonly used to mimic mammalian cell membrane. 1-Palmitoyl-2-oleoyl-sn-glycero-3-phosphoglycerol (POPG) has a negatively charged head group. The mixture of 1-palmitoyl-2-oleoyl-sn-glycero-3-phosphoethanolamine (POPE) and POPG is commonly used to mimic the negatively charged membrane surface of bacteria.
For the CD spectra of pepD in lipids, two kinds of liposomes DOPC and POPE/POPG (1:1, w/w) were prepared. DOPC (10 mg/mL) and POPE/POPG (14 mg/mL) were dissolved in chloroform/methanol (9/1, v/v) in a glass tube individually. The solvents were evaporated under the purge of nitrogen gas to form a thin lipid film on the tube surface. The tube was placed in vacuo overnight to completely remove the organic solvent. To rehydrate the lipid film, 400 μL deionized water was added and mixed in an Intelli-Mixer (rocker mode, 60 rpm) for one hour. Then, the water/lipid mixture was frozen in liquid nitrogen and thawed at 45° C. for 5 min. After five freeze-thaw cycles, liposomes were prepared by extruding the mixture through a polycarbonate filter (with 200-nm pore size) using an Avanti Mini-Extruder (Avanti Polar Lipids, USA). Purified pepD was dissolved in water (64 μg/mL) and mixed with an equal volume of the liposome suspension for CD measurement.

[20] = test system: Escherichia coli strain DH5a; settings: DH5a, 24 h
[21] = test system: Xanthomonas oryzae pv. oryzae strain Xoo28; settings: Xoo Xoo28; rich medium, 24 h, purified peptides
[22] = test system: Xanthomonas oryzae pv. oryzae strain Xoo28; settings: Xoo Xoo28; Table 7
[23] = test system: Agrobacterium tumefaciens strain Atu C58C1; settings: Atu C58C1; Table 7
[24] = test system: Pseudomonas syringae pv. tomato strain DC3000
[25] = test system: Pseudomonas syringae pv. syringae strain B728a; settings: Pss B728a; Table 7

With `CC(=O)N[C@@H](Cc1c[nH]c2ccccc12)C(=O)N[C@H](CCCCN)C(=O)N[C@H](CCCCN)C(=O)N[C@H](CC(C)C)C(=O)N[C@H](CCCCN)C(=O)N[C@H](CCCCN)C(=O)N[C@H](CC(C)C)C(=O)N[C@H](CC(C)C)C(=O)N[C@H](CCCCN)C(=O)N[C@H](CCCCN)C(=O)N[C@H](CC(C)C)C(=O)N[C@H](CCCCN)C(=O)N[C@H](CCCCN)C(=O)N[C@H](CC(C)C)C(N)=O` [pepdD2, Ac-Wkklkkllkklkkl-NH2] (Ac-W[dK][dK][dL][dK][dK][dL][dL][dK][dK][dL][dK][dK][dL]-NH2) the hemolytic activity (red blood cells) was “very little or non-hemolytic activity”, the MFC (Candida albicans SC5314; SC5314) was 32 µg/mL (≈ 17.4 µM) and the MIC (Candida albicans SC5314; SC5314) was 32 µg/mL (≈ 17.4 µM). For the same compound, the MFC [1] was 32 µg/mL (≈ 17.4 µM), the MIC [1] was 16 µg/mL (≈ 8.71 µM) and the MFC [2] was 32 µg/mL (≈ 17.4 µM). For the same compound, the MIC [2] was 32 µg/mL (≈ 17.4 µM), the MIC ([3]; Cryptococcus neoformans H99) was 4 µg/mL (≈ 2.18 µM) and the MFC ([3]; H99) was 4 µg/mL (≈ 2.18 µM). For the same compound, the MIC ([4]; Cryptococcus neoformans T1 (fluconazole-resistant)) was 2 µg/mL (≈ 1.09 µM), the MFC ([4]; T1 (fluconazole-resistant)) was 2 µg/mL (≈ 1.09 µM) and the MFC ([5]; 89-610 (fluconazole-resistant)) was 2 µg/mL (≈ 1.09 µM). It also gave an MIC ([5]; Cryptococcus neoformans 89-610 (fluconazole-resistant)) of 2 µg/mL (≈ 1.09 µM), an MFC [6] of 2 µg/mL (≈ 1.09 µM) and an MIC ([6]; Cryptococcus deuterogattii R265) of 2 µg/mL (≈ 1.09 µM). For the same compound, the MFC [7] was 2 µg/mL (≈ 1.09 µM), the MIC [7] was 2 µg/mL (≈ 1.09 µM) and the MBC [8] was 8 µg/mL (≈ 4.36 µM). For the same compound, the MBC [9] was 32 µg/mL (≈ 17.4 µM), the MIC [9] was 32 µg/mL (≈ 17.4 µM) and the MBC [10] was 32 µg/mL (≈ 17.4 µM). It also gave an MIC [10] of 32 µg/mL (≈ 17.4 µM), an MBC [11] of 32 µg/mL (≈ 17.4 µM) and an MIC [11] of 16 µg/mL (≈ 8.71 µM). For the same compound, the MBC [12] was 4 µg/mL (≈ 2.18 µM), the MIC [12] was 4 µg/mL (≈ 2.18 µM) and the MBC [13] was 16 µg/mL (≈ 8.71 µM). It also gave an MIC [13] of 16 µg/mL (≈ 8.71 µM).

In the case of Ac-WKKLKKLLKKLKKLLKKL-NH2 [pepD], the IC50 [14] is reported as 4.0 µg/mL, the IC50 [15] is reported as 4.0 µg/mL and the MBC (Eco DH5α) is reported as 10.0 µg/mL. The MIC (Eco DH5α) was 10.0 µg/mL, the MBC [16] was 6.7 µg/mL and the MIC [16] was 2.7 µg/mL. It also gave an MBC [17] of 18.7 µg/mL, an MIC [17] of 5.3 µg/mL and an MIC [18] of 32.0 µg/mL. The MBC ([18]; Pcc, Table 7) was “— (“—” indicates no antimicrobial activity being detected at the highest peptide concentration (32 μg/mL) tested in this study.)”, the lipid selectivity [19] was “only interacts with negatively charged lipid” and the IC50 [20] was 10.0 µg/mL. It also gave an IC50 [21] of 8.0 µg/mL, an MIC (Candida albicans SC5314; SC5314, 48 h) of 16.0 µg/mL and an MBC [22] of 4.0 µg/mL. For the same compound, the MIC [22] was 4.0 µg/mL, the MBC [23] was “— (“—” indicates no antimicrobial activity being detected at the highest peptide concentration (32 μg/mL) tested in this study.)” and the MBC [24] was 24.0 µg/mL. The MIC [24] was 16.0 µg/mL, the MBC [25] was “— (“—” indicates no antimicrobial activity being detected at the highest peptide concentration (32 μg/mL) tested in this study.)” and the MIC [25] was 32.0 µg/mL.
